The values below come from PMC10255231, “Cytotoxic, Anti-Hemolytic, and Antioxidant Activities of Ruta chalepensis L. (Rutaceae) Extract, Fractions, and Isolated Compounds” (Plants, 2023).

Assay [1] concerns human red blood cells. Nature of the assay: Anti-hemolytic activity test (AAPH inhibition). The class given is cell-based. The conditions noted are these: human erythrocytes, AAPH 150 mM, PBS pH 7.4. The procedure:
The AAPH inhibition test was used to determine the anti-hemolytic activity, as previously reported. Hemolysis was induced by the AAPH radical (150 mM in PBS) as a positive control. Treatment concentrations ranged from 7.81 µg/mL to 1000 µg/mL in PBS at pH 7.4 plus AAPH. IC50 values were defined as the sample concentration needed to cause 50% hemolysis of human red blood cells. The anti-hemolytic activity was evaluated using the following Formula (5):(5) % Anti−hemolytic Activity=1−OD570nm Treatment/OD570nm Positive control×100

The test system of assay [2] is human red blood cells. The assay is described as follows: Hemolytic activity test. The class given is cell-based. To be noted: human erythrocytes, PBS pH 7.4; for IC50: Erythrocyte. Here is the method:
The hemolytic activity was assessed using the hemolysis test at treatment concentrations ranged from 7.81 µg/mL to 1000 µg/mL in PBS at pH 7.4. IC50 values were defined as the sample concentration needed to cause 50% hemolysis of human red blood cells. The percentage of hemolysis was determined by measuring ODs at 540 nm as follows (4):(4) Hemolysis %=OD540nm Treatment/OD540nm Positive control×100

The test system of another assay is VERO cells. The assay is described as follows: MTT cell viability assay, normal VERO cells. To be noted: Chlorocebus sabaeus, 72 h. It counts as cell-based, African green monkey. The text has this:
(§1) The human hepatocellular carcinoma cell line HEP-G2 (ATCC HB-8065) and the monkey kidney epithelial cell line VERO (ATCC CCL-81) were obtained from the Laboratory of Immunology and Virology in FCB at UANL (FCB-UANL), México, and cultured in DMEM, supplemented with 10% heat-inactivated FBS, 2% NaHCO3, and HEPES [57]. Murine lymphoma L5178Y-R cells (ATCC CRL-1722) and human peripheral blood mononuclear cells (PBMC) were maintained in RPMI-1640 culture medium, supplemented with 10% heat-inactivated FBS and 1% antibiotic/antimycotic solution [26]. Assays were conducted with adherent HEP-G2 and VERO cells on flat-bottom microplates and non-adherent L5178Y-R and PBMC cells were evaluated on round-bottom microplates.
(§2) Cells were cultured at 37 °C and 5% CO2 in 95% air in a humidified incubator, in the presence or absence of treatments for 72 h. After which they were incubated with MTT (0.5 mg/mL final concentration) at 37 °C in 5% CO2 for 3 h and supernatants were discarded after the incubation period. Resulting formazan crystals were dissolved in DMSO, and optical densities (OD) were measured at 540 nm, using a microplate reader (Molecular Devices Corporation in Palo Alto, CA). In addition, […] (IC50) values were determined after 72 h incubation with treatments at concentrations ranging from 7.81 µg/mL to 1000 µg/mL and ODs were measured at 570 nm on a microplate reader (Molecular Devices Corporation). The positive control consisted of 0.05 µg/mL VS and the negative control was culture medium alone. All treatments were diluted in DMSO to a final well test concentration not exceeding 0.5% (v/v). Cell viability was determined using the following Formula (2):(2) Cell viability %=OD570nmTreatment/OD570nmNegative control×100
(Tetrazolium assays rely on reduction of a dye to a coloured formazan, in cell work by metabolically active cells.)

Another assay deals with PBMC. The assay is described as follows: MTT cell viability assay, normal PBMC. It counts as cell-based. The conditions noted are these: Homo sapiens, 72 h, normal cells.
Source text: as §1, §2

In another assay the test system is HEP-G2 cells. The assay is described as follows: MTT cell viability assay, HEP-G2 tumor cells. The conditions noted are these: Homo sapiens, HepG2, 72 h. It counts as cell-based.
Source text: as §1, §2
To determine the selectivity index (SI) for each treatment, we divided the IC50 of […]. SI was assessed for adherent cells (non-tumor/tumor) and for non-adherent cells (non-tumor/tumor). […] SI was calculated using the following Formula (3):(3) SI=IC50 Normal Cells/IC50 Tumor Cells

For another assay, the system named is L5178Y-R cells. The assay is described as follows: MTT cell viability assay, L5178Y-R lymphoma cells. It counts as cell-based, murine. The conditions noted are these: Mus musculus, 72 h, tumor cells.
Source text: as §1
Cells were cultured at 37 °C and 5% CO2 in 95% air in a humidified incubator, in the presence or absence of treatments for 72 h. […] Resulting formazan crystals were dissolved in DMSO, and optical densities (OD) were measured at 540 nm, using a microplate reader (Molecular Devices Corporation in Palo Alto, CA). […] Cell viability was determined using the following Formula (2):(2) Cell viability %=OD570nmTreatment/OD570nmNegative control×100
To determine the selectivity index (SI) for each treatment, we divided the IC50 of […]. SI was assessed for adherent cells (non-tumor/tumor) and for non-adherent cells (non-tumor/tumor). […]

In brackets after ≈: the same amount, converted by molar mass.

For `C=CC(C)(C)c1cc2cc3ccoc3cc2oc1=O` [CHL, Chalepensin], the IC50 (in general, the concentration needed to halve the response being measured) in the assay on human red blood cells [1] (Erythrocyte) was 180 ± 4.76 µg/mL (≈ 707 µM); in the assay with human red blood cells [2], 101 ± 4.2 µg/mL (≈ 397 µM); in the assay on VERO cells, 387 ± 9.24 µg/mL (≈ 1520 µM); in the assay with PBMC, 226 ± 5.67 µg/mL (≈ 891 µM); with HEP-G2 cells it was 76.2 ± 2.85 µg/mL (≈ 300 µM). Further, the “Hemolytic Activity IC50” value in the assay with human red blood cells [2] was “did not show significant hemolytic activity”.

In the case of `Cn1c(-c2ccc3c(c2)OCO3)cc(=O)c2ccccc21` [GRV, Graveoline], the IC50 with L5178Y-R cells was less than 50 µg/mL; in the assay with human red blood cells [2], 57.6 ± 11.3 µg/mL (≈ 206 µM); in the assay on VERO cells, 179 ± 7.39 µg/mL (≈ 640 µM); in the assay with PBMC, 159 ± 30.6 µg/mL (≈ 569 µM); in the assay with HEP-G2 cells it was 54.6 ± 3.34 µg/mL (≈ 196 µM). Besides, in the assay on human red blood cells [1], the “Anti-Hemolytic Activity IC50” value is recorded as “did not exhibit any anti-hemolytic activity”.

For the compound `C=CC(C)(C)c1cc2cc3c(cc2oc1=O)OC(C(C)(C)OC(C)=O)C3` (stereo not drawn) [RTM, Rutamarin], the “Anti-Hemolytic Activity IC50” value in the assay with human red blood cells [1] was “did not exhibit any anti-hemolytic activity”. The half-maximal inhibitory concentration (IC50) in the assay with human red blood cells [2] is more than 1500 µg/mL; in the assay with VERO cells it was 430 ± 4.07 µg/mL (≈ 1210 µM); with PBMC it was 151 ± 10.1 µg/mL (≈ 424 µM); in the assay on HEP-G2 cells, 130 ± 3.68 µg/mL (≈ 364 µM). Moreover, the “Hemolytic Activity IC50” value in the assay on human red blood cells [2] is reported as “did not show significant hemolytic activity”.
